Assay: Circular dichroism secondary structure in G(−)IM ULVs
Assay type: physicochemical
Details: 10 μM peptide, 15 mM PBS pH 7, 37 °C
Experimental: Unilamellar vesicles (ULVs) of ∼600 Å diameter were prepared using an Avanti extruder: 200 μL of 20 mg/ml G(−)IM lipid in 15 mM PBS was extruded 21 times through Nucleopore filters of size 500 Å using 0.2 mL Hamilton syringes in the Avanti extruder. The final concentration of G(−)IM lipid in the ULVs was determined gravimetrically to be 15 mg/ml. Concentrated ULVs were added to 3 mL of 10 μM peptide in 15 mM PBS at pH 7 to create lipid/peptide molar ratios between 0:1 and 70:1. The samples remained at room temperature for ∼16 h before the CD measurement. Data were collected in 3 mL quartz cuvettes using a Jasco 1500 CD spectrophotometer at 37 °C in the Center for Nucleic Acids Science and Technology at Carnegie Mellon University. The samples were scanned from 200 to 240 nm 20 times, and the ellipticity (ϵ) results were averaged. Temperature was controlled at 37 °C via a Peltier element and water circulation through the sample compartment. Nitrogen gas was used at a flow rate between 20 and 25 ft^3/h (CFH). The parameters for scanning were: speed 100 nm/min, step size 1.0 nm, response time 1 second, bandwidth 1 nm, and sensitivity of 20 mdeg. OriginPro 2019 (OriginLab, Northampton, MA) was used to carry out a linear least-squares fit of the smoothed ellipticity traces to four secondary structural motifs representing α-helix, β-sheet, β-turn, and random coil.[20] This analysis gives a percentage match of each of the secondary structural motifs to the total sample ellipticity. Data were finally converted to mean residue ellipticity, taking into account the peptide concentration (10 μMolar) and number of amino acids (N), using the equation: MRE = (10^4/N)ϵ deg cm^2/dmol.

[1] = G(−)IM/peptide molar ratio 10:1
[2] = G(−)IM/peptide molar ratio 15:1
[3] = G(−)IM/peptide molar ratio 20:1
[4] = G(−)IM/peptide molar ratio 30:1
[5] = G(−)IM/peptide molar ratio 50:1
[6] = G(−)IM/peptide molar ratio 70:1

With `CC[C@H](C)[C@H](NC(=O)[C@@H](NC(=O)[C@H](CO)NC(=O)[C@H](CCCCN)NC(=O)[C@@H](NC(=O)[C@H](CCCCN)NC(=O)CNC(=O)[C@H](Cc1c[nH]c2ccccc12)NC(=O)[C@@H](NC(=O)CNC(=O)CNC(=O)[C@@H](NC(=O)[C@H](Cc1c[nH]c2ccccc12)NC(=O)CNC(=O)[C@H](CCCCN)NC(=O)[C@@H](NC(=O)[C@H](CCCCN)NC(=O)[C@H](CCCCN)NC(=O)[C@H](Cc1ccccc1)NC(=O)[C@H](Cc1ccccc1)NC(=O)[C@H](CCCCN)NC(=O)[C@H](CCCCN)NC(=O)[C@@H](N)CC(C)C)C(C)C)C(C)C)C(C)C)C(C)C)C(C)C)C(=O)N[C@@H](CCCCN)C(=O)O` (stereo in doubt) [A4-153] as the compound, how does the Random (G(−)IM/peptide molar ratio 0:1) read?
Its Random is 57.7%.

And the α-helix (G(−)IM/peptide molar ratio 0:1)?
Its α-helix is 6.4%.

And the β-sheet (G(−)IM/peptide molar ratio 0:1)?
Its β-sheet is 34.2%.

And the β-turn (G(−)IM/peptide molar ratio 0:1)?
The β-turn was 1.7%.

And the Random (G(−)IM/peptide molar ratio 1:1)?
The Random was 51.7%.

What about the α-helix (G(−)IM/peptide molar ratio 1:1) of the same compound?
The α-helix was 11.9%.

And the β-sheet (G(−)IM/peptide molar ratio 1:1)?
Its β-sheet is 32.4%.

What about the β-turn (G(−)IM/peptide molar ratio 1:1) of the same compound?
Its β-turn is 4.0%.

And the Random (G(−)IM/peptide molar ratio 5:1)?
The Random was 62.9%.

And the α-helix (G(−)IM/peptide molar ratio 5:1)?
The α-helix was 10.2%.

What about the β-sheet (G(−)IM/peptide molar ratio 5:1) of the same compound?
The β-sheet was 26.9%.

And the β-turn (G(−)IM/peptide molar ratio 5:1)?
Its β-turn is 0%.

And the Random [1]?
Its Random is 62.5%.

And the α-helix [1]?
The α-helix was 14.8%.

What about the β-sheet [1] of the same compound?
The β-sheet was 17.7%.

What about the β-turn [1] of the same compound?
Its β-turn is 5.0%.

What about the Random [2] of the same compound?
Its Random is 15.6%.

And the α-helix [2]?
The α-helix was 41.9%.

And the β-sheet [2]?
The β-sheet was 41.2%.

And the β-turn [2]?
Its β-turn is 1.3%.

And the Random [3]?
Its Random is 0%.

And the α-helix [3]?
Its α-helix is 78.3%.

What about the β-sheet [3] of the same compound?
The β-sheet was 8.0%.

And the β-turn [3]?
Its β-turn is 13.7%.

And the Random [4]?
The Random was 4.6%.

And the α-helix [4]?
Its α-helix is 78.5%.

What about the β-sheet [4] of the same compound?
The β-sheet was 10.2%.

What about the β-turn [4] of the same compound?
The β-turn was 6.7%.

What about the Random [5] of the same compound?
The Random was 0%.

What about the α-helix [5] of the same compound?
The α-helix was 77.4%.

And the β-sheet [5]?
The β-sheet was 13.6%.

What about the β-turn [5] of the same compound?
Its β-turn is 9.0%.

And the Random [6]?
Its Random is 0%.

What about the α-helix [6] of the same compound?
The α-helix was 64.1%.

And the β-sheet [6]?
The β-sheet was 15.1%.

What about the β-turn [6] of the same compound?
The β-turn was 20.8%.

Source: article PMC10265666, “Lung SPLUNC1 Peptide Derivatives in the Lipid Membrane Headgroup Kill Gram-Negative Planktonic and Biofilm Bacteria” (Biomacromolecules, 2023)
